Laboratory results from US7459451B2, “Pyrazolopyridine derivatives” (Astellas Pharma Inc., priority 2004, dated 2008).

melting point [°C]	SMILES
154 to 155	CCn1ncc2c(-c3cncc(C)c3)c(CCC(=O)O)c(COC)nc21 [Example 92, 3-[1-Ethyl-6-(methoxymethyl)-4-(5-methyl-3-pyridyl)-1H-pyrazolo[3,4-b]pyridin-5-yl]propanoic acid]
205 to 207	CCn1ncc2c(-c3cncc(C)c3)c(CCC(=O)O)c(C3CC3)nc21 [Example 343, 3-[6-Cyclopropyl-1-ethyl-4-(5-methyl-3-pyridyl)-1H-pyrazolo[3,4-b]pyridin-5-yl]propanoic acid]
269 to 272	Cc1cncc(-c2c(/C=C/C(=O)O)c(C)nc3c2cnn3C)c1 [Example 90, (2E)-3-[1,6-Dimethyl-4-(5-methyl-3-pyridyl)-1H-pyrazolo[3,4-b]pyridin-5-yl]acrylic acid]
198 to 199	CCn1ncc2c(-c3cncc(C)c3)c(/C=C/C(=O)O)c(COC(C)C)nc21 [Example 240, (2E)-3-[1-Ethyl-6-(isopropoxymethyl)-4-(5-methyl-3-pyridyl)-1H-pyrazolo[3,4-b]pyridin-5-yl]acrylic acid]
212 to 213	CCn1ncc2c(-c3cncc(C)c3)c(/C=C/C(=O)O)c(CC(C)C)nc21 [Example 215, (2E)-3-[1-Ethyl-6-isobutyl-4-(5-methyl-3-pyridyl)-1H-pyrazolo[3,4-b]pyridin-5-yl]acrylic acid]
205 to 207	Cc1cncc(-c2c(CCC(=O)O)c(C)nc3c2cnn3C)c1 [Example 97, 3-[1,6-Dimethyl-4-(5-methyl-3-pyridyl)-1H-pyrazolo[3,4-b]pyridin-5-yl]propanoic acid]
197 to 199	CCC(CC)c1nc2c(cnn2CC)c(-c2cncc(C)c2)c1/C=C/C(=O)O [Example 201, (2E)-3-[1-Ethyl-6-(1-ethylpropyl)-4-(5-methyl-3-pyridyl)-1H-pyrazolo[3,4-b]pyridin-5-yl]acrylic acid]
221 to 223	CCn1ncc2c(-c3cncc(C)c3)c(CCC(=O)O)c(CC(C)(C)C)nc21 [Example 349, 3-[6-(2,2-Dimethylpropyl)-1-ethyl-4-(5-methyl-3-pyridyl)-1H-pyrazolo[3,4-b]pyridin-5-yl]propanoic acid]
247 to 248	CCn1ncc2c(-c3cncc(C)c3)c(/C=C/C(=O)O)c(C(C)C)nc21 [Example 212, (2E)-3-[1-Ethyl-6-isopropyl-4-(5-methyl-3-pyridyl)-1H-pyrazolo[3,4-b]pyridin-5-yl]acrylic acid]
163 to 165	CCn1ncc2c(-c3ccc(Cl)s3)c(/C=C/C(=O)O)c(C(C)C)nc21 [Example 224, (2E)-3-[4-(5-Chloro-2-thienyl)-1-ethyl-6-isopropyl-1H-pyrazolo[3,4-b]pyridin-5-yl]acrylic acid]
221 to 222	CCn1ncc2c(-c3cncc(C)c3)c(/C=C/C(=O)O)c(C3CC3)nc21 [Example 214, (2E)-3-[6-Cyclopropyl-1-ethyl-4-(5-methyl-3-pyridyl)-1H-pyrazolo[3,4-b]pyridin-5-yl]acrylic acid]
162 to 163	CCn1ncc2c(-c3cncc(Br)c3)c(C(=O)O)c(COC)nc21 [Example 86, 4-(5-Bromo-3-pyridyl)-1-ethyl-6-(methoxymethyl)-1H-pyrazolo[3,4-b]pyridine-5-carboxylic acid]
> 250	CCn1ncc2c(-c3ccccc3)c(/C=C/C(=O)O)c(-c3ccccc3)nc21 [Example 211, (2E)-3-(1-Ethyl-4,6-diphenyl-1H-pyrazolo[3,4-b]pyridin-5-yl)acrylic acid]
203 to 205	CCn1ncc2c(-c3cncc(C)c3)c(CCC(=O)O)c(C(C)C)nc21 [Example 194, 3-[1-Ethyl-6-isopropyl-4-(5-methyl-3-pyridyl)-1H-pyrazolo[3,4-b]pyridin-5-yl]propanoic acid]
197 to 199	CCn1ncc2c(-c3cncc(C)c3)c(C(=O)NCC3CCCCC3)c(-c3ccccc3)nc21 [Example 247, N-(Cyclohexylmethyl)-1-ethyl-4-(5-methyl-3-pyridyl)-6-phenyl-1H-pyrazolo[3,4-b]pyridine-5-carboxamide]
253 to 254	CCn1ncc2c(-c3cncc(OC)c3)c(/C=C/C(=O)O)c(-c3ccccc3)nc21 [Example 218, (2E)-3-[1-Ethyl-4-(5-methoxy-3-pyridyl)-6-phenyl-1H-pyrazolo[3,4-b]pyridin-5-yl]acrylic acid]
183 to 184	CCn1ncc2c(-c3cncc(Br)c3)c(/C=C/C(=O)O)c(COCC3CC3)nc21 [Example 88, (2E)-3-{4-(5-Bromo-3-pyridyl)-6-[(cyclopropylmethoxy)methyl]-1-ethyl-1H-pyrazolo[3,4-b]pyridin-5-yl}acrylic acid]
260 to 262.5	CCn1ncc2c(-c3ccnc(C)c3)c(/C=C/C(=O)O)c(C(C)C)nc21 [Example 242, (2E)-3-[1-Ethyl-6-isopropyl-4-(2-methyl-4-pyridyl)-1H-pyrazolo[3,4-b]pyridin-5-yl]acrylic acid]
> 250	CCn1ncc2c(-c3ccnc(Cl)c3)c(/C=C/C(=O)O)c(-c3ccccc3)nc21 [Example 204, (2E)-3-[4-(2-Chloro-4-pyridyl)-1-ethyl-6-phenyl-1H-pyrazolo[3,4-b]pyridin-5-yl]acrylic acid]

melting point [°C]	SMILES
234 to 235	CCn1ncc2c(-c3cncc(Br)c3)c(/C=C/C(=O)O)c(C(C)C)nc21 [Example 225, (2E)-3-[4-(5-Bromo-3-pyridyl)-1-ethyl-6-isopropyl-1H-pyrazolo[3,4-b]pyridin-5-yl]acrylic acid]
109 to 110	CCOC(=O)c1c(C)nc2c(cnn2CC)c1-c1ccnc(Cl)c1 [Example 3, Ethyl 4-(2-chloro-4-pyridyl)-1-ethyl-6-methyl-1H-pyrazolo[3,4-b]pyridine-5-carboxylate]
203 to 204	CCn1ncc2c(-c3cncc(C)c3)c(C(=O)NCc3ccc(OC)cc3)c(-c3ccccc3)nc21 [Example 65, 1-ethyl-N-(4-methoxybenzyl)-4-(5-methyl-3-pyridyl)-6-phenyl-1H-pyrazolo[3,4-b]pyridine-5-carboxamide]
179 to 181	CCn1ncc2c(-c3cncc(C)c3)c(CCC(=O)O)c(C)nc21 [Example 94, 3-[1-Ethyl-6-methyl-4-(5-methyl-3-pyridyl)-1H-pyrazolo[3,4-b]pyridin-5-yl]propanoic acid]
209 to 210	CCn1ncc2c(-c3cncc(C)c3)c(CCC(=O)O)c(C#N)nc21 [Example 100, 3-[6-Cyano-1-ethyl-4-(5-methyl-3-pyridyl)-1H-pyrazolo[3,4-b]pyridin-5-yl]propanoic acid]
234 to 235	CCn1ncc2c(-c3cccc(Cl)c3)c(/C=C/C(=O)O)c(COC)nc21 [Example 191, (2E)-3-[4-(3-Chlorophenyl)-1-ethyl-6-(methoxymethyl)-1H-pyrazolo[3,4-b]pyridin-5-yl]acrylic acid]
187 to 189	CCn1ncc2c(-c3cncc(C)c3)c(/C=C/C(=O)O)c(COCC3CC3)nc21 [Example 87, (2E)-3-[6-[(Cyclopropylmethoxy)methyl]-1-ethyl-4-(5-methyl-3-pyridyl)-1H-pyrazolo[3,4-b]pyridin-5-yl]acrylic acid]
187 to 188	CCn1ncc2c(-c3cncc(Cl)c3)c(/C=C/C(=O)O)c(COC)nc21 [Example 231, (2E)-3-[4-(5-chloro-3-pyridyl)-1-ethyl-6-(methoxymethyl)-1H-pyrazolo[3,4-b]pyridin-5-yl]acrylic acid]
269 to 270	CCn1ncc2c(-c3cncc(C)c3)c(C(=O)NC3Cc4ccccc4C3)c(-c3ccccc3)nc21 [Example 66, N-(2,3-Dihydro-1H-inden-2-yl)-1-ethyl-4-(5-methyl-3-pyridyl)-6-phenyl-1H-pyrazolo[3,4-b]pyridine-5-carboxamide]
187 to 188	CCOCc1nc2c(cnn2CC)c(-c2cncc(C)c2)c1/C=C/C(=O)O [Example 234, (2E)-3-[6-(Ethoxymethyl)-1-ethyl-4-(5-methyl-3-pyridyl)-1H-pyrazolo[3,4-b]pyridin-5-yl]acrylic acid]
190 to 191	CCn1ncc2c(-c3cncc(C)c3)c(CCC(=O)O)c(CC(C)C)nc21 [Example 344, 3-[1-Ethyl-6-isobutyl-4-(5-methyl-3-pyridyl)-1H-pyrazolo[3,4-b]pyridin-5-yl]propanoic acid]
255 to 258	CCn1ncc2c(-c3ccc(Cl)nc3)c(/C=C/C(=O)O)c(-c3ccccc3)nc21 [Example 208, (2E)-3-[4-(6-Chloro-3-pyridyl)-1-ethyl-6-phenyl-1H-pyrazolo[3,4-b]pyridin-5-yl]acrylic acid]
180 to 182	CCn1ncc2c(-c3cncc(Br)c3)c(/C=C/C(=O)O)c(COC)nc21 [Example 226, (2E)-3-[4-(5-Bromo-3-pyridyl)-1-ethyl-6-(methoxymethyl)-1H-pyrazolo[3,4-b]pyridin-5-yl]acrylic acid]
216 to 217.5	CCn1ncc2c(-c3cncc(C)c3)c(/C=C/C(=O)O)c(CC(C)(C)C)nc21 [Example 236, (2E)-3-[6-(2,2-Dimethylpropyl)-1-ethyl-4-(5-methyl-3-pyridyl)-1H-pyrazolo[3,4-b]pyridin-5-yl]acrylic acid]
255 to 257	CCn1ncc2c(-c3cncc(C)c3)c(/C=C/C(=O)O)c(C3CCCCC3)nc21 [Example 190, (2E)-3-[6-Cyclohexyl-1-ethyl-4-(5-methyl-3-pyridyl)-1H-pyrazolo[3,4-b]pyridin-5-yl]acrylic acid]
184 to 185	CCn1ncc2c(-c3cncc(C)c3)c(CCC(=O)O)c(CC3CC3)nc21 [Example 241, 3-[6-(Cyclopropylmethyl)-1-ethyl-4-(5-methyl-3-pyridyl)-1H-pyrazolo[3,4-b]pyridin-5-yl]propanoic acid]
144 to 145	CCC(CC)c1nc2c(cnn2CC)c(-c2cncc(C)c2)c1CCC(=O)O [Example 346, 3-[1-Ethyl-6-(1-ethylpropyl)-4-(5-methyl-3-pyridyl)-1H-pyrazolo[3,4-b]pyridin-5-yl]propanoic acid]
239 to 241	CCn1ncc2c(-c3cncc(C)c3)c(/C=C/C(=O)O)c(C)nc21 [Example 85, (2E)-3-[1-Ethyl-6-methyl-4-(5-methyl-3-pyridyl)-1H-pyrazolo[3,4-b]pyridin-5-yl]acrylic acid]
